Molecular target: CDK2 (UniProt P24941)
Experiment: Enzyme Assay

| IC50 [nM] | SMILES |
| --- | --- |
| 100 to 1000 | NS(=O)(=O)c1ccc(N/C=C2\C(=O)Nc3nc(Cl)ccc32)cc1 |
| 10 to 100 | CCOC(=O)c1cnc2c(c1)/C(=C/Nc1ccc3cn[nH]c3c1)C(=O)N2 |
| 10 to 100 | NS(=O)(=O)c1ccc(N/C=C2\C(=O)Nc3cnccc32)cc1 |
| 1000 to 10000 | O=C1Nc2ncc(-c3ccco3)cc2/C1=C/Nc1ccc2cn[nH]c2c1 |
| 100 to 1000 | NS(=O)(=O)c1ccc(N/C=C2\C(=O)Nc3ncc(-c4ccsc4)cc32)cc1 |
| 100 to 1000 | O=C1Nc2nc(Cl)ccc2/C1=C/Nc1ccc2cn[nH]c2c1 |
| 100 to 1000 | O=C1Nc2ncc(-c3ccsc3)cc2/C1=C/Nc1ccc2cn[nH]c2c1 |
| 1000 to 10000 | NS(=O)(=O)c1ccc(N/C=C2\C(=O)Nc3ncc(-c4ccccc4)cc32)cc1 |
| 10 to 100 | CCOC(=O)c1cnc2c(c1)/C(=C/Nc1ccc(S(N)(=O)=O)cc1)C(=O)N2 |
| 10 to 100 | NS(=O)(=O)c1ccc(N/C=C2\C(=O)Nc3ncc(-c4ccco4)cc32)cc1 |
| 10 to 100 | NS(=O)(=O)c1ccc(N/C=C2\C(=O)Nc3ccncc32)cc1 |
| 10 to 100 | NS(=O)(=O)c1ccc(N/C=C2\C(=O)Nc3ncc(Br)cc32)cc1 |
| 100 to 1000 | NS(=O)(=O)c1ccc(N/C=C2\C(=O)Nc3ncccc32)cc1 |
| 10 to 100 | O=C1Nc2ncc(Br)cc2/C1=C/Nc1ccc2cn[nH]c2c1 |
| 10 to 100 | O=C1Nc2ncc(Br)cc2/C1=C/Nc1ccc2ncccc2c1 |
| 100 to 1000 | CCOC(=O)c1cnc2c(c1)/C(=C\Nc1ccc3ncccc3c1)C(=O)N2 |

Reference: the Kinase Knowledgebase extract (Sharma et al. 2016)
